Laboratory results: US7247634B2, “Rifamycin derivatives effective against drug-resistant microbes” (Cumbre Pharmaceuticals Inc., priority 2004, dated 2007)
Values after ≈ are worked out from the molar mass of the structure shown.

Columns and labels:
Type in all cases: cell-based
[1] = system: Enterococcus faecalis ATCC29212; assay: MIC, microbroth dilution (NCCLS); settings: rifS strain, BHI Broth, 37° C., read-out: Antimicrobial activity (MIC)
[2] = system: Staphylococcus epidermidis ATCC12228; assay: MIC, microbroth dilution (NCCLS); settings: rifS strain, Cation-Adjusted Mueller-Hinton Broth, 37° C., read-out: Antimicrobial activity (MIC)
[3] = system: Streptococcus pyogenes ATCC19615; assay: MIC, microbroth dilution (NCCLS); settings: rifS strain, THY Broth, 37° C., read-out: Antimicrobial activity (MIC)
[4] = system: Staphylococcus aureus ATCC29213 rpoB^H418Y; assay: microbe, parasite or virus in culture; settings: ATCC29213, read-out: Antimicrobial activity (MIC)
Experimental: (§1) Representative compounds were assayed for antimicrobial activity as follows: Minimum Inhibitory Concentrations (“MICs”) were determined by the microbroth dilution method as per NCCLS guidelines (National Committee for Clinical Laboratory Standards. 2000. Methods for dilution antimicrobial susceptibility tests for bacteria that grow aerobically, 5th ed. M7-A5. National Committee for Clinical Laboratory Standards, Wayne, Pa.), except that all growth incubations were conducted at 37° C. Bacterial cultures were tested in the following bacteriological media: S. aureus, S. epidermidis, and E. coli in Cation-Adjusted Mueller-Hinton Broth, S. pneumoniae in THY Broth supplemented with 1 mg/mL catalase under 5% CO2 atmosphere, S. pyogenes in THY Broth, E. faecalis in BHI Broth, H. influenzae in BHI Broth supplemented with 0.75 μL of 1 mg/mL NAD and 150 μL of 1 mg/ml hematin per 5 mL, and M. smegmatis in Middlebrook Broth plus ADC Enrichment.
(§2) S. aureus ATCC 29213 RpoB^H418Y is a rifampin-resistant strain with a mutation in RNA polymerase, the biological target of rifamycin antibiotics. […] S. aureus EN1252a gyrA^S84L grlA^S80F is a quinolone-resistant strain due to double mutations to DNA gyrase and topoisomerase IV, the two biological targets for quinolone antibiotics.

[5] = system: Staphylococcus aureus EN1252a gyrA^S84L grlA^S80F; assay: microbe, parasite or virus in culture; settings: read-out: Antimicrobial activity (MIC)
Experimental: as §1, §2

[6] = system: Staphylococcus aureus ATCC29213 rpoB^D417Y; assay: microbe, parasite or virus in culture; settings: ATCC29213, read-out: Antimicrobial activity (MIC)
Experimental: as §1, §2

[7] = system: Streptococcus pneumoniae ATCC6303; assay: MIC, microbroth dilution (NCCLS); settings: rifS strain, THY Broth with 1 mg/mL catalase, 5% CO2, 37° C., read-out: Antimicrobial activity (MIC)
[8] = system: Haemophilus influenzae ATCC10211; assay: MIC, microbroth dilution (NCCLS); settings: rifS strain, BHI Broth with NAD and hematin, 37° C., read-out: Antimicrobial activity (MIC)
[9] = system: Mycobacterium smegmatis ATCC700084; assay: MIC, microbroth dilution (NCCLS); settings: Mycolicibacterium smegmatis, rifS strain, Middlebrook Broth plus ADC Enrichment, 37° C., read-out: Antimicrobial activity (MIC)
[10] = system: Escherichia coli ATCC25922; assay: MIC, microbroth dilution (NCCLS); settings: rifS strain, Cation-Adjusted Mueller-Hinton Broth, 37° C., read-out: Antimicrobial activity (MIC)
[11] = system: Staphylococcus aureus ATCC29213; assay: MIC, microbroth dilution (NCCLS); settings: rifS strain, Cation-Adjusted Mueller-Hinton Broth, 37° C., read-out: Antimicrobial activity (MIC)

Row | Compound | MIC [1] | MIC [2] | MIC [3] | MIC [4] | MIC [5] | MIC [6] | MIC [7] | MIC [8] | MIC [9] | MIC [10] | MIC [11]
1 | COc1c(N2CCCC(NC(=O)C3CN(C4=C5NC(=O)/C(C)=C\C=C\[C@H](C)[C@H](O)[C@@H](C)[C@@H](O)[C@@H](C)[C@H](OC(C)=O)[C@H](C)[C@@H](OC)/C=C/O[C@@]6(C)Oc7c(C)c(O)c(c(c7C6=O)C4=O)C5=O)C3)C2)c(F)cc2c(=O)c(C(=O)O)cn(C3CC3)c12 (mixture of isomers) [Example 46, 3-{3-[1-(3-Carboxy-1-cyclopropyl-6-fluoro-8-methoxy-4-oxo-1,4-dihydroquinolin-7-yl)-piperidin-3-ylcarbamoyl]-azetidin-1-yl}rifamycin S] | 2 to 32 µg/mL | 0.008 to 0.063 µg/mL | 0.008 to 0.063 µg/mL | 0.06 to 16 µg/mL | 0.004 to 0.5 µg/mL | 0.06 to 32 µg/mL | 0.008 to 0.125 µg/mL | 0.125 to 2 µg/mL | 0.5 to 64 µg/mL | 0.125 to 8 µg/mL | 0.004 to 0.5 µg/mL
2 | CO[C@H]1/C=C/O[C@@]2(C)Oc3c(C)c(O)c4c(c3C2=O)C(=O)C(NC2CCN(c3c(F)cc5c(=O)c(C(=O)O)cn(C6CC6)c5c3Cl)C2)=C(NC(=O)/C(C)=C\C=C\[C@H](C)[C@H](O)[C@@H](C)[C@@H](O)[C@@H](C)[C@H](OC(C)=O)[C@@H]1C)C4=O (mixture of isomers) [Example 7, (R/S)-3-[1-(3-Carboxy-8-chloro-1-cyclopropyl-6-fluoro-4-oxo-1,4-dihydroquinolin-7-yl)-pyrrolidin-3-ylamino]rifamycin S] | 2 to 32 µg/mL (≈ 1.89 to 30.2 µM) | 0.008 to 0.063 µg/mL (≈ 0.00755 to 0.0595 µM) | 0.008 to 0.063 µg/mL (≈ 0.00755 to 0.0595 µM) | 0.06 to 16 µg/mL (≈ 0.0566 to 15.1 µM) | 0.004 to 0.5 µg/mL (≈ 0.00378 to 0.472 µM) | 0.06 to 32 µg/mL (≈ 0.0566 to 30.2 µM) | 0.008 to 0.125 µg/mL (≈ 0.00755 to 0.118 µM) | 0.125 to 2 µg/mL (≈ 0.118 to 1.89 µM) | 0.5 to 64 µg/mL | 0.125 to 8 µg/mL (≈ 0.118 to 7.55 µM) | 0.004 to 0.5 µg/mL (≈ 0.00378 to 0.472 µM)
3 | CO[C@H]1/C=C/O[C@@]2(C)Oc3c(C)c(O)c4c(O)c(c(CNC5CCN(c6c(F)cc7c(=O)c(C(=O)O)cn(C8CC8)c7c6Cl)C5)c(O)c4c3C2=O)NC(=O)/C(C)=C\C=C\[C@H](C)[C@H](O)[C@@H](C)[C@@H](O)[C@@H](C)[C@H](OC(C)=O)[C@@H]1C (mixture of isomers) [Example 13, (R/S)-3-[1-(8-Chloro-3-carboxy-1-cyclopropyl-6-fluoro-4-oxo-1,4-dihydroquinolin-7-yl)-pyrrolidinyl-3-aminomethyl]rifamycin SV] | 2 to 32 µg/mL (≈ 1.86 to 29.8 µM) | 0.008 to 0.063 µg/mL (≈ 0.00744 to 0.0586 µM) | 0.008 to 0.063 µg/mL (≈ 0.00744 to 0.0586 µM) | 0.06 to 16 µg/mL (≈ 0.0558 to 14.9 µM) | 0.004 to 0.5 µg/mL (≈ 0.00372 to 0.465 µM) | 0.06 to 32 µg/mL (≈ 0.0558 to 29.8 µM) | 0.008 to 0.125 µg/mL (≈ 0.00744 to 0.116 µM) | 0.125 to 2 µg/mL (≈ 0.116 to 1.86 µM) | 0.5 to 64 µg/mL | 0.125 to 8 µg/mL (≈ 0.116 to 7.44 µM) | 0.004 to 0.5 µg/mL (≈ 0.00372 to 0.465 µM)
4 | COc1c(N2CCC(NC3=C4NC(=O)/C(C)=C\C=C\[C@H](C)[C@H](O)[C@@H](C)[C@@H](O)[C@@H](C)[C@H](OC(C)=O)[C@H](C)[C@@H](OC)/C=C/O[C@@]5(C)Oc6c(C)c(O)c(c(c6C5=O)C3=O)C4=O)C2)c(F)cc2c(=O)c(C(=O)O)cn(C3CC3)c12 (mixture of isomers) [Example 27] | 2 to 32 µg/mL (≈ 1.9 to 30.3 µM) | 0.008 to 0.063 µg/mL (≈ 0.00758 to 0.0597 µM) | 0.008 to 0.063 µg/mL (≈ 0.00758 to 0.0597 µM) | 0.06 to 16 µg/mL (≈ 0.0569 to 15.2 µM) | 0.004 to 0.5 µg/mL (≈ 0.00379 to 0.474 µM) | 0.06 to 32 µg/mL (≈ 0.0569 to 30.3 µM) | 0.008 to 0.125 µg/mL (≈ 0.00758 to 0.118 µM) | 0.125 to 2 µg/mL (≈ 0.118 to 1.9 µM) | 0.5 to 64 µg/mL | 0.125 to 8 µg/mL (≈ 0.118 to 7.58 µM) | 0.004 to 0.5 µg/mL (≈ 0.00379 to 0.474 µM)
5 | COc1c(N2CCC(N(C)C3=C4NC(=O)/C(C)=C\C=C\[C@H](C)[C@H](O)[C@@H](C)[C@@H](O)[C@@H](C)[C@H](OC(C)=O)[C@H](C)[C@@H](OC)/C=C/O[C@@]5(C)Oc6c(C)c(O)c(c(c6C5=O)C3=O)C4=O)C2)c(F)cc2c(=O)c(C(=O)O)cn(C3CC3)c12 (mixture of isomers) [Example 28] | 2 to 32 µg/mL (≈ 1.87 to 29.9 µM) | 0.008 to 0.063 µg/mL (≈ 0.00748 to 0.0589 µM) | 0.008 to 0.063 µg/mL (≈ 0.00748 to 0.0589 µM) | 0.06 to 16 µg/mL (≈ 0.0561 to 15 µM) | 0.004 to 0.5 µg/mL (≈ 0.00374 to 0.468 µM) | 0.06 to 32 µg/mL (≈ 0.0561 to 29.9 µM) | 0.008 to 0.125 µg/mL (≈ 0.00748 to 0.117 µM) | 0.125 to 2 µg/mL (≈ 0.117 to 1.87 µM) | 0.5 to 64 µg/mL | 0.125 to 8 µg/mL (≈ 0.117 to 7.48 µM) | 0.004 to 0.5 µg/mL (≈ 0.00374 to 0.468 µM)
6 | CO[C@H]1/C=C/O[C@@]2(C)Oc3c(C)c(O)c4c(c3C2=O)C(=O)C(N2CCC(NC3CCN(c5c(F)cc6c(=O)c(C(=O)O)cn(C7CC7)c6c5Cl)C3)CC2)=C(NC(=O)/C(C)=C\C=C\[C@H](C)[C@H](O)[C@@H](C)[C@@H](O)[C@@H](C)[C@H](OC(C)=O)[C@@H]1C)C4=O (mixture of isomers) [Example 29, (R/S)-3-{4-[1-(3-Carboxy-8-chloro-1-cyclopropyl-6-fluoro-4-oxo-1,4-dihydroquinolin-7-yl)-pyrrolidin-3-ylamino]-piperidin-1-yl}rifamycin S] | 2 to 32 µg/mL (≈ 1.75 to 28 µM) | 0.008 to 0.063 µg/mL (≈ 0.007 to 0.0551 µM) | 0.008 to 0.063 µg/mL (≈ 0.007 to 0.0551 µM) | 0.06 to 16 µg/mL (≈ 0.0525 to 14 µM) | 0.004 to 0.5 µg/mL (≈ 0.0035 to 0.438 µM) | 0.06 to 32 µg/mL (≈ 0.0525 to 28 µM) | 0.008 to 0.125 µg/mL (≈ 0.007 to 0.109 µM) | 0.125 to 2 µg/mL (≈ 0.109 to 1.75 µM) | 0.5 to 64 µg/mL | 0.125 to 8 µg/mL (≈ 0.109 to 7 µM) | 0.004 to 0.5 µg/mL (≈ 0.0035 to 0.438 µM)
7 | COc1c(N2CCC(NC3CCN(C4=C5NC(=O)/C(C)=C\C=C\[C@H](C)[C@H](O)[C@@H](C)[C@@H](O)[C@@H](C)[C@H](OC(C)=O)[C@H](C)[C@@H](OC)/C=C/O[C@@]6(C)Oc7c(C)c(O)c(c(c7C6=O)C4=O)C5=O)CC3)C2)c(F)cc2c(=O)c(C(=O)O)cn(C3CC3)c12 (mixture of isomers) [Example 30, (R/S)-3-{4-[1-(3-Carboxy-1-cyclopropyl-6-fluoro-8-methoxy-4-oxo-1,4-dihydroquinolin-7-yl)-pyrrolidin-3-ylamino]-piperidin-1-yl}rifamycin S] | 2 to 32 µg/mL (≈ 1.76 to 28.1 µM) | 0.008 to 0.063 µg/mL (≈ 0.00703 to 0.0553 µM) | 0.008 to 0.063 µg/mL (≈ 0.00703 to 0.0553 µM) | 0.06 to 16 µg/mL (≈ 0.0527 to 14.1 µM) | 0.004 to 0.5 µg/mL (≈ 0.00351 to 0.439 µM) | 0.06 to 32 µg/mL (≈ 0.0527 to 28.1 µM) | 0.008 to 0.125 µg/mL (≈ 0.00703 to 0.11 µM) | 0.125 to 2 µg/mL (≈ 0.11 to 1.76 µM) | 0.5 to 64 µg/mL | 0.125 to 8 µg/mL (≈ 0.11 to 7.03 µM) | 0.004 to 0.5 µg/mL (≈ 0.00351 to 0.439 µM)
8 | COc1c(N2CCCC(NC3CCN(C4=C5NC(=O)/C(C)=C\C=C\[C@H](C)[C@H](O)[C@@H](C)[C@@H](O)[C@@H](C)[C@H](OC(C)=O)[C@H](C)[C@@H](OC)/C=C/O[C@@]6(C)Oc7c(C)c(O)c(c(c7C6=O)C4=O)C5=O)CC3)C2)c(F)cc2c(=O)c(C(=O)O)cn(C3CC3)c12 (mixture of isomers) [Example 32, (R/S)-3-{4-[1-(3-Carboxy-1-cyclopropyl-6-fluoro-8-methoxy-4-oxo-1,4-dihydroquinolin-7-yl)-piperidin-3-ylamino]-piperidin-1-yl}rifamycin S] | 2 to 32 µg/mL (≈ 1.74 to 27.8 µM) | 0.008 to 0.063 µg/mL (≈ 0.00694 to 0.0547 µM) | 0.008 to 0.063 µg/mL (≈ 0.00694 to 0.0547 µM) | 0.06 to 16 µg/mL (≈ 0.0521 to 13.9 µM) | 0.004 to 0.5 µg/mL (≈ 0.00347 to 0.434 µM) | 0.06 to 32 µg/mL (≈ 0.0521 to 27.8 µM) | 0.008 to 0.125 µg/mL (≈ 0.00694 to 0.108 µM) | 0.125 to 2 µg/mL (≈ 0.108 to 1.74 µM) | 0.5 to 64 µg/mL | 0.125 to 8 µg/mL (≈ 0.108 to 6.94 µM) | 0.004 to 0.5 µg/mL (≈ 0.00347 to 0.434 µM)
